Test results reported in the supplement of paper PMC4862054.
Values joined by “and” are separate entries in the source; they are usually repeats but may differ in a detail not shown here. Equal values may be shown once.

Tests used:
[1] = test system: CAL-51; conditions: 72 h
Protocol: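 Drug sensitivity and resistance testing (DSRT) of breast cancer cell lines in 384-well plates, 5 concentrations in 10-fold dilutions over a compound-specific 10,000-fold range. After 72 h, cytotoxicity was read by CellTox Green fluorescence and viability by CellTiter-Glo luminescence (multiplexed), normalised to DMSO and benzethonium chloride controls. EC50 is the inflection point of the fitted dose-response curve (bottom asymptote free, so it can be relative for partial curves) and is censored at the highest tested concentration. Rows with DSS 0 (no meaningful response) were excluded.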

[2] = test system: HDQ-P1; assay: normalised viability (% of control), CellTiter-Blue; higher = more viable cells (about 100 = DMSO control); conditions: incubation time: 72 h
Protocol: (§1)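 DSRT, CellTiter-Blue viability, 72 h incubation. Signal is normalised to DMSO and benzethonium chloride controls. Value is the normalised response at dose 9.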

[3] = test system: CAL-51; assay: as above; conditions: incubation time: 72 h
Protocol: as §1

[4] = test system: DU-4475; assay: as above; conditions: incubation time: 72 h
Protocol: as §1

[5] = test system: CAL-85-1; assay: as above; conditions: incubation time: 72 h
Protocol: as §1

[6] = test system: MDA-MB-453; assay: as above; conditions: incubation time: 72 h
Protocol: as §1

[7] = test system: CAL-148; assay: as above; conditions: incubation time: 72 h
Protocol: as §1

[8] = test system: MFM-223; assay: normalised response (% of control), CellTiter-Glo; higher = more viable cells (100 = DMSO, 0 = benzethonium chloride kill control); conditions: incubation time: 72 h
Outline: (§2)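 Every value is a normalised signal taken at one concentration of a dilution series. Compound was placed in 384-well plates at 5 concentrations in 10-fold steps over a compound-specific 10,000-fold range, and 20 µl of breast cancer cell suspension was seeded onto it. After 72 h, CellTox Green fluorescence (485/520 nm) was measured first and CellTiter-Glo luminescence second, following 10 min at room temperature. Each plate was scaled to 0.1 % DMSO (100) and a positive kill control (0).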

[9] = test system: MDA-MB-231; assay: as above; conditions: incubation time: 72 h
Outline: as §2

[10] = test system: HDQ-P1; assay: as above; conditions: incubation time: 72 h
Outline: as §2

[11] = test system: CAL-51; assay: as above; conditions: incubation time: 72 h
Outline: as §2

[12] = test system: BT-474; assay: as above; conditions: incubation time: 72 h
Outline: as §2

[13] = test system: DU-4475; assay: as above; conditions: incubation time: 72 h
Outline: as §2

[14] = test system: MCF-10A; assay: as above; conditions: incubation time: 72 h
Outline: as §2

[15] = test system: SK-BR-3; assay: as above; conditions: incubation time: 72 h
Outline: as §2

[16] = test system: HCC1937; assay: as above; conditions: incubation time: 72 h
Outline: as §2

[17] = test system: Hs578T; assay: as above; conditions: incubation time: 72 h
Outline: as §2

[18] = test system: MDA-MB-468; assay: as above; conditions: incubation time: 72 h
Outline: as §2

[19] = test system: CAL-85-1; assay: as above; conditions: incubation time: 72 h
Outline: as §2

[20] = test system: MDA-MB-453; assay: as above; conditions: incubation time: 72 h
Outline: as §2

[21] = test system: MDA-MB-436; assay: as above; conditions: incubation time: 72 h
Outline: as §2

[22] = test system: HCC1599; assay: as above; conditions: incubation time: 72 h
Outline: as §2

[23] = test system: BT-549; assay: as above; conditions: incubation time: 72 h
Outline: as §2

[24] = test system: HCC1143; assay: as above; conditions: incubation time: 72 h
Outline: as §2

[25] = test system: CAL-148; assay: as above; conditions: incubation time: 72 h
Outline: as §2

Structure (SMILES)	EC50, CellTox Green [1] [nM]	normalised viability [2]	normalised viability [3]	normalised viability [4]	normalised viability [5]	normalised viability [6]	normalised viability [7]	normalised response [8] [%]	normalised response [9] [%]	normalised response [10] [%]	normalised response [11] [%]	normalised response [12] [%]	normalised response [13] [%]	normalised response [14] [%]	normalised response [15] [%]	normalised response [16] [%]	normalised response [17] [%]	normalised response [18] [%]	normalised response [19] [%]	normalised response [20] [%]	other results
CC[C@H](CC#N)OC(=O)N[C@@H](C)c1cccc(NC(=O)Nc2ccc(-c3cnco3)c(OC)c2)c1 [AVN944]	176	–	–	–	–	–	–	–	–	–	–	–	–	–	–	–	–	–	–	–	–
Cc1c(N)nc([C@H](CC(N)=O)NC[C@H](N)C(N)=O)nc1C(=O)N[C@H](C(=O)N[C@H](C)[C@@H](O)[C@H](C)C(=O)N[C@H](C(=O)NCCc1nc(-c2nc(C(=O)NCCC[S+](C)C)cs2)cs1)[C@@H](C)O)[C@@H](OC1OC(CO)C(O)C(O)C1OC1OC(CO)C(O)C(OC(N)=O)C1O)c1cnc[nH]1 (stereo partly drawn) [Bleomycin]	20.5	–	–	–	–	–	–	–	–	–	–	–	–	–	–	–	–	–	–	–	–
CC(C)C[C@H](NC(=O)[C@H](CCc1ccccc1)NC(=O)CN1CCOCC1)C(=O)N[C@@H](Cc1ccccc1)C(=O)N[C@@H](CC(C)C)C(=O)[C@@]1(C)CO1 [Carfilzomib]	5.31	–	–	–	–	–	–	–	–	–	–	–	–	–	–	–	–	–	–	–	–
Nc1nc(Cl)nc2c1ncn2[C@@H]1O[C@H](CO)[C@@H](O)[C@@H]1F [Clofarabine]	108	–	–	–	–	–	–	–	–	–	–	–	–	–	–	–	–	–	–	–	–
CCc1cnn2c(NCc3ccc[n+]([O-])c3)cc(N3CCCC[C@H]3CCO)nc12 [Dinaciclib]	13	–	–	–	–	–	–	–	–	–	–	–	–	–	–	–	–	–	–	–	–
COc1cc2c(Oc3ccc(NC(=O)C4(C(=O)Nc5ccc(F)cc5)CC4)cc3F)ccnc2cc1OCCCN1CCOCC1 [Foretinib]	251	–	–	–	–	–	–	–	–	–	–	–	–	–	–	–	–	–	–	–	–
CC(C)NC[C@@H](C(=O)N1CCN(c2ncnc3c2[C@H](C)C[C@H]3O)CC1)c1ccc(Cl)cc1 [GDC-0068]	1150	–	–	–	–	–	–	–	–	–	–	–	–	–	–	–	–	–	–	–	–
NC(=O)NO [Hydroxyurea]	16300	–	–	–	–	–	–	–	–	–	–	–	–	–	–	–	–	–	–	–	–
COc1cc2c(cc1-c1c(C)noc1C)ncc1[nH]c(=O)n([C@H](C)c3ccccn3)c12 [I-BET151]	1740	–	–	–	–	–	–	–	–	–	–	–	–	–	–	–	–	–	–	–	–
N[C@@H](Cc1ccc(N(CCCl)CCCl)cc1)C(=O)O [Melphalan]	194	–	–	–	–	–	–	–	–	–	–	–	–	–	–	–	–	–	–	–	–
O=C(c1cc(Cc2n[nH]c(=O)c3ccccc23)ccc1F)N1CCN(C(=O)C2CC2)CC1 [Olaparib]	8300	–	–	–	–	–	–	–	–	–	–	–	–	–	–	–	–	–	–	–	–
CO[C@H](C(=O)[C@@H](O)[C@@H](C)O)[C@@H]1Cc2cc3cc(O[C@H]4C[C@@H](O[C@@H]5C[C@@H](O)[C@H](O)[C@@H](C)O5)[C@H](O)[C@@H](C)O4)c(C)c(O)c3c(O)c2C(=O)[C@H]1O[C@H]1C[C@@H](O[C@@H]2C[C@@H](O)[C@@H](O[C@@H]3C[C@](C)(O)[C@H](O)[C@@H](C)O3)[C@@H](C)O2)[C@H](O)[C@@H](C)O1 [Plicamycin]	2120	–	–	–	–	–	–	–	–	–	–	–	–	–	–	–	–	–	–	–	–
CO[C@H](C(=O)[C@@H](O)[C@@H](C)O)[C@@H]1Cc2cc3cc(O[C@H]4C[C@@H](O[C@@H]5C[C@@H](O)[C@H](O)[C@@H](C)O5)[C@H](O)[C@@H](C)O4)c(C)c(O)c3c(O)c2C(=O)[C@H]1O[C@H]1C[C@@H](O[C@@H]2C[C@@H](O)[C@@H](O[C@@H]3C[C@](C)(O)[C@H](O)[C@@H](C)O3)[C@@H](C)O2)[C@H](O)[C@@H](C)O1 [Plicamycin] (10000 nM)	–	22.3% and 16%	3.24% and 3.4%	2.44% and 0.15%	4.34% and 2.26%	6.38% and 4.39%	7.52% and 8.68%	29.1	7.32	19.1	9.56	9.55	1.22	5.35	10.1	21	8.19	4.44	9.87	16.1	normalised response [21]: 22.5%; normalised response [22]: 4.89%; normalised response [23]: 1.99%; normalised response [24]: 6.57%; normalised response [25]: 6.34%
C[C@]12C=CC(=O)C=C1CC[C@@H]1[C@@H]2C(=O)C[C@@]2(C)[C@H]1CC[C@]2(O)C(=O)CO [Prednisone] (10000 nM)	–	122%	101%	99.3%	103%	88%	103%	97.4	100	98.6	118	105	107	113	107	95.4	102	104	98.6	100	normalised response [21]: 98.2%; normalised response [22]: 102%; normalised response [23]: 94.6%; normalised response [24]: 103%; normalised response [25]: 109%
CN1CCN(c2nc(C3=C(c4c[nH]c5ccccc45)C(=O)NC3=O)c3ccccc3n2)CC1 [Sotrastaurin] (10000 nM)	–	124%	108%	77.1%	124%	75.6%	127%	67.4	107	86.2	92.5	103	76.4	94.2	67.5	118	108	78.6	112	108	normalised response [21]: 107%; normalised response [22]: 82.8%; normalised response [23]: 97.9%; normalised response [24]: 94.2%; normalised response [25]: 84.3%
CC/C(=C(\c1ccccc1)c1ccc(OCCN(C)C)cc1)c1ccccc1 [Tamoxifen] (10000 nM)	–	78.5%	90.2%	108%	102%	17.4%	120%	58.2	60.8	99.1	71.7	69.3	85.7	74.3	53.4	51.8	87.8	77	81.6	23.5	normalised response [21]: 86.9%; normalised response [22]: 73%; normalised response [23]: 78.2%; normalised response [24]: 95.7%; normalised response [25]: 77.7%
Cn1nnc2c(C(N)=O)ncn2c1=O [Temozolomide] (10000 nM)	–	31.3%	87.8%	116%	107%	100%	116%	101	91.2	95.1	106	91.2	91.1	96.2	93.9	91.6	95.7	99.1	99.2	97.9	normalised response [21]: 98%; normalised response [22]: 108%; normalised response [23]: 100%; normalised response [24]: 95.1%; normalised response [25]: 95.8%
CN1CCc2c(c3ccccc3n2Cc2ccc(C(=O)NO)cc2)C1 [Tubastatin A]	2220	–	–	–	–	–	–	–	–	–	–	–	–	–	–	–	–	–	–	–	–
CC[C@@H]1C(=O)N(C)c2cnc(Nc3ccc(C(=O)N[C@H]4CC[C@H](N5CCN(CC6CC6)CC5)CC4)cc3OC)nc2N1C(C)C [Volasertib]	20.7	–	–	–	–	–	–	–	–	–	–	–	–	–	–	–	–	–	–	–	–
CC[C@@H]1C(=O)N(C)c2cnc(Nc3ccc(C(=O)N[C@H]4CC[C@H](N5CCN(CC6CC6)CC5)CC4)cc3OC)nc2N1C(C)C [Volasertib] (1000 nM)	–	87.8%	7.23%	35.1%	61.5%	30.7%	31.4%	51.2	73	64.7	26.9	66.4	66.2	46.9	27.2	66.8	25.4	48	48.6	62.4	normalised response [21]: 65.6%; normalised response [22]: 28.3%; normalised response [23]: 29.1%; normalised response [24]: 41.3%; normalised response [25]: 79.9%
